Earlier results on one compound are cited in US12365644B2, “Co-crystal of ketoprofen, lysine and gabapentin, pharmaceutical compositions and their medical use” (DOMPÉ FARMACEUTICI S.P.A., priority 2020, dated 2025).

For series [1] the following is noted: most common side effects.

With `NCC1(CC(=O)O)CCCCC1` [Gabapentin], the “time to utmost level in plasma” value (after oral administration) was 3 to 4 h. In addition, the “attachment to plasma proteins” value (in vivo) is given as “does not attach to plasma proteins”. Also, the excretion half-life entry (renal excretion) is listed as “roughly 6 hours”. In series [1], the “side effect: ataxia” value was 13%, the “side effect: dizziness” value was 18%, the “side effect: fatigue” value is on record as 11% and the “side effect: somnolence” value is listed as 20%.
